According to patent USRE39034E1, “Molecule involved in binding of sperm to egg surfaces and procedures for use of this molecule to enhance or decrease potential fertility” (The Penn State Research Foundation, priority 1996, dated 2006):
Entries after “also recorded” stand apart in the source; their conditions may differ. Bridges are numbered along the chain shown (N, C = ends). Where no end group is shown, it is not given here. [ ]: non-standard residue; d: D form.

What was measured:
[1] = test system: frozen-thawed rooster sperm binding to an extract of hen's egg membrane; assay: In vitro microwell sperm-egg binding assay, sperm treated with peptides (fluorescent plate reader); assay type: cell-based; conditions: for Biological activity / sperm binding capability (in words) / Activity relative to SEQ ID NO: 1 / Peptide concentration which, after tenfold dilution of the sperm suspension, provided maximum binding / Concentration at which binding activity was induced (active at): frozen-thawed rooster sperm; for Peptide concentration which, after tenfold dilution of the sperm suspension, provided maximum binding: hen's egg membrane extract in microwell plate
Text: The biological activity of the native UPSEBP prepared from rooster sperm and synthetic amino acid sequences were compared in an in vitro assay of sperm binding described in copending U.S. patent application Ser. No. 08/234,448. This microwell assay used plates in which the wells were coated with a binding substrate prepared from an extract of hen's egg vitelline membrane. The thawed rooster sperm, known to be reduced in UPSEBP, were washed once with isotonic salt solutions, resuspended at 50×10^5/0.1 ml, and incubated 30 minutes with 0.02-50 μg/0.5 ml native UPSEBP or synthetic peptide. Then 0.1 ml of a suspension of about 5×10^6 sperm were placed into each of triplicate wells in a microwell plate. After 2 hours of incubation at 37° C., unbound sperm were washed away and bound sperm were stained and counted using a microscope. The number of sperm bound was considered to be a measure of biological activity because there is a high correlation between the number of rooster sperm bound in vitro to such an egg extract and the fertilizing potential of sperm in that sample, as quantified by the percentage of eggs hatching young chicks after artificial insemination. Table No. 1 presents the amino acid sequence of synthetic peptides and the resulting binding capacity as compared to native UPSEBP (full sequence not provided). Initial evaluations of the capabilities of SEQ ID NO:1 through SEQ ID NO:11, native UPSEBP and rat SGP-1 to enhance sperm binding to an egg-membrane substrate were based on visual counts of bound sperm and conducted over a number of months. The binding data for SEQ ID NO:1 through SEQ ID NO:12 and native UPSEBP and rat SGP-1 presented in Table No. 1 were obtained as two data sets using a recent version of that sperm-egg binding assay in which the bound sperm were stained with a fluorescent dye binding to DNA and quantified using a fluorescent microwell-plate reader, by techniques known to those skilled in the art. The amino acid sequences of portions of human prosaposin (SEQ ID NO:15) and mouse prosaposin (SEQ ID NO:16) also are as shown. [table]

[2] = test system: frozen-thawed rooster sperm; assay: Restoration of binding capability of frozen-thawed rooster sperm to hen's egg membrane extract (Examples 1, 2, 6, 7); assay type: cell-based; conditions: FIG. 2
Text: Although the invention has been described generally above, particular examples give additional illustration of the products and method steps typical of the present polypeptide and uses thereof. The data presented in FIGS. 1 to 3 and 6 to 9 show the number of sperm bound per unit area of laid hen's egg perivitelline membrane, or data derived from such binding, or bound to a substrate prepared using an extract from such perivitelline membranes pursuant to the method disclosed in co-pending patent application Ser. No. 08/234,448. Except when noted, native protein extracted from rooster sperm with UPSEBP activity was used.
Freshly collected rooster sperm were cryopreserved, thawed and processed to remove glycerol. One portion of the thawed sperm received crude UPSEBP at a concentration of 2 μg protein per 10^6 sperm. Samples containing 1-10×10^6 sperm were placed into wells coated with an extract of hen's egg membrane and incubated 180 minutes. Non-bound sperm were removed by washing, and bound sperm were stained with diamido-2-phenylindole and counted using an epifluorescent microscope.
Rooster sperm subjected to a cryopreservation cycle were treated with increasing amounts of partially purified UPSEBP and subject to a standard binding assay, together with aliquots of unfrozen (fresh) sperm.
Frozen-thawed turkey sperm were exposed to rooster UPSEBP or semi-purified SGP-1.

| Activity relative to SEQ ID NO: 1 [1] | Peptide concentration which, after tenfold dilution of the sperm suspension, provided maximum binding [1] | Molecule | Biological activity / sperm binding capability (in words) [1] | other results |
| --- | --- | --- | --- | --- |
| 0.0006 | 300 nmol | SEQ ID NO:2: Table 1 sequence: Tyr-Pro-Gln-Asp-Arg-Thr-Arg-Ser-Gln-Pro-Gln-Pro (YPQDRTRSQPQP; Portion of SEQ ID NO 1 showing lower binding capability.) | lower binding capability | – |
| 0.002 | 85 nmol | SEQ ID NO:4: Table 1 sequence: Gln-Pro-Gln-Pro-Lys-Ala-Asn-Glu-Asp-Val-Cys-Gln-Asp-Cys-Met (QPQPKANEDVCQDCM; Addition of amino acids distal to the terminal asparagine of SEQ ID NO 3 does not substantially change biological activity.) | did not substantially change biological activity | – |
| 0.0005 | 370 nmol | SEQ ID NO:6: Table 1 sequence: Tyr-Pro-Gln-Asp-Arg-Thr-Arg-Ser-Gln-Pro-Gln-Cys (YPQDRTRSQPQC; Replacement of the terminal proline of SEQ ID NO 2 with a cysteine does not substantially change biological activity.) | minimal change in biological activity relative to SEQ ID NO:2 | – |
| 0.003 | 50 nmol | SEQ ID NO:7: Table 1 sequence: Acetyl-Tyr-Pro-Gln-Asp-Arg-Thr-Arg-Ser-Gln-Pro-Gln-Pro (Ac-YPQDRTRSQPQP) | did not suppress biological activity relative to SEQ ID NO:2 | – |
| 0.002 | 100 nmol | SEQ ID NO:8: Table 1 sequence: Phe-Phe-Tyr-Pro-Gln-Asp-Arg-Thr-Arg-Ser-Gln-Pro-Gln-Pro (FFYPQDRTRSQPQP; Addition of a phenylalanine group to the NH2 end of SEQ ID NO 2 does not substantially suppress biological activity.) | did not suppress biological activity relative to SEQ ID NO:2 | – |
| 0.94 | 0.18 nmol | YPQDRPRSQPQPKAN [SEQ ID NO:9] | substantial binding activity; also recorded: very high biological activity, approximately equal to that of SEQ ID NO:1 | – |

Second part, the molecule before the results:

| Molecule | Activity relative to SEQ ID NO: 1 [1] | Peptide concentration which, after tenfold dilution of the sperm suspension, provided maximum binding [1] | Biological activity / sperm binding capability (in words) [1] | other results |
| --- | --- | --- | --- | --- |
| CQSLQEYLAEQNQRQLESNKIPEVDLARVVAPFMSNIPLLLYPQDRPRSQPQPKANEDVC (cysteine pairing not given here) [SEQ ID NO:12] | – | – | conferred substantial binding activity especially when oxidized to form a molecule with a hairpin form | – |
| SEQ ID NO:3: Table 1 sequence: Gln-Pro-Gln-Pro-Lys-Ala-Asn (QPQPKAN; Portion of SEQ ID NO 1 essentially devoid of binding capability.) | 0.0001 | 2,125 nanomoles | essentially devoid of binding capability | – |
| SEQ ID NO:5: Table 1 sequence: Pro-Gln-Pro-Lys-Ala-Asn-Glu-Asp-Val-Cys-Gln-Asp-Cys-Met-Lys-Leu-Val-Thr-Asp (PQPKANEDVCQDCMKLVTD; Addition of amino acids distal to the terminal asparagine of SEQ ID NO 3 does not substantially change biological activity.) | 0.0003 | 510 nmol | – | – |
| SEQ ID NO:10: Table 1 sequence: L-Leu-Tyr-Pro-Gln-Asp-Arg-Thr-Arg-Ser-Gln-Pro-Gln-Pro-Lys-Ala-Asn (LYPQDRTRSQPQPKAN; L-amino acids; SITE 1 L-isomer) | 0.94 | 8.8 nmol | greater than that of SEQ ID NO:11; also recorded: reduced activity relative to SEQ ID NO:1 | – |
| SEQ ID NO:11: Table 1 sequence: D-Leu-Tyr-Pro-Gln-Asp-Arg-Thr-Arg-Ser-Gln-Pro-Gln-Pro-Lys-Ala-Asn ([dL]YPQDRTRSQPQPKAN) | 0.001 | 25 nmol | reduced activity relative to SEQ ID NO:1 | – |
| SEQ ID NO:12 hairpin form: SEQ ID NO:12 modified by induced oxidation of the SH-groups to a closed loop (CQSLQEYLAEQNQRQLESNKIPEVDLARVVAPFMSNIPLLLYPQDRPRSQPQPKANEDVC; disulfide 1-60 (inferred)) | – | – | enhanced biological activity | Activity relative to the linear form of SEQ ID NO:12 [1]: 5 times; Potency relative to SEQ ID NO:1 [1]: 425 times; Concentration at which binding activity was induced (active at) [1]: 0.4 pM |
| SEQ ID NO:12 linear form: SEQ ID NO:12 as synthesized, 60 amino acid molecule (CQSLQEYLAEQNQRQLESNKIPEVDLARVVAPFMSNIPLLLYPQDRPRSQPQPKANEDVC; Synthetic peptide embodying the complete intervening sequence between rat saposin A and saposin B.) | – | – | substantial biological activity | Potency relative to SEQ ID NO:9 [1]: approximately 90 times; Concentration at which binding activity was induced (active at) [1]: 2 pM |
| YPQDRTRSQPQPKAN [SEQ ID NO:1] | 1 | 3.17 nmol | greater biological activity than SEQ ID NO:2 through SEQ ID NO:8 | Biological activity / sperm binding capability (in words) ([1]; listed as SEQ NO:1): substantial binding activity; Number of sperm bound to the egg membrane substrate ([1]; nanomolar concentrations of peptide): approximately twice as many sperm bound |
| saposin D: human saposin produced by proteolytic cleavage of prosaposin (protein, UniProt P07602 405-486, looked up, Saposin-D, human saposin produced by proteolytic cleavage of prosaposin) Saposin-D: DGGFCEVCKKLVGYLDRNLEKNSTKQEILAALEKGCSFLPDPYQKQCDQFVAEYEPVLIEILVEVMDPSFVCLKIGACPSAH | – | – | – | Restoration of binding (in words) [2]: ineffective at restoring binding |
| human saposin B: human saposin produced by proteolytic cleavage of prosaposin (protein, UniProt P07602 195-273, looked up, Saposin-B, human saposin produced by proteolytic cleavage of prosaposin) Saposin-B: GDVCQDCIQMVTDIQTAVRTNSTFVQALVEHVKEECDRLGPGMADICKNYISQYSEIAIQMMMHMQPKEICALVGFCDE | – | – | – | Binding restored, percent of that obtained by exposure to UPSEBP ([2]; UPSEBP 2 μg/million sperm): about 70% |
| saposin A: human saposin produced by proteolytic cleavage of prosaposin (protein, UniProt P07602 60-142, looked up, Saposin-A, human saposin produced by proteolytic cleavage of prosaposin) Saposin-A: SLPCDICKDVVTAAGDMLKDNATEEEILVYLEKTCDWLPKPNMSASCKEIVDSYLPVILDIIKGEMSRPGEVCSALNLCESLQ | – | – | – | Restoration of binding (in words) [2]: ineffective at restoring binding |
| saposin C: human saposin produced by proteolytic cleavage of prosaposin (protein, UniProt P07602 311-390, looked up, Saposin-C, human saposin produced by proteolytic cleavage of prosaposin) Saposin-C: SDVYCEVCEFLVKEVTKLIDNNKTEKEILDAFDKMCSKLPKSLSEECQEVVDTYGSSILSILLEEVSPELVCSMLHLCSG | – | – | – | Restoration of binding (in words) [2]: ineffective at restoring binding |
